Measured values reported in patent US8236818B2, “Substituted imidazopyridine derivatives as melanocortin-4 receptor antagonists” (Santhera Pharmaceuticals (Schweiz) AG, priority 2007, dated 2012).

Experiments:
melanocortin-4 receptor [1] = target: T1, melanocortin-4 receptor (Homo sapiens, UniProt P32245); test: Functional assay (cAMP fluorescence polarization, membrane based, agonistic activity); assay type: biochemical; conditions: 2 h; read-out: % activation functional assay
T1 construct: expressed in transfected cells; host or cells: HEK293 cells (membrane preparations)
T1 sequence (P32245 whole entry): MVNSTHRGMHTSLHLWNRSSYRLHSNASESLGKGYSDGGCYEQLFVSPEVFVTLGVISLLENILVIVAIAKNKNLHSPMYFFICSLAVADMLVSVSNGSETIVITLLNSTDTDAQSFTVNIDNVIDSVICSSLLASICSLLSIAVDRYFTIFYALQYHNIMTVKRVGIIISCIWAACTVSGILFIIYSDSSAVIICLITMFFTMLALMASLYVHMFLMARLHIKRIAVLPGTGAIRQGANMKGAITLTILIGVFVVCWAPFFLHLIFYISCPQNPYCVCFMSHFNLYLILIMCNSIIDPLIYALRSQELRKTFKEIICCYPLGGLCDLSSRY

melanocortin-4 receptor [2] = target: T1, melanocortin-4 receptor; test: Membrane binding assay (fluorescence polarization, competition with fluorescence labeled NDP-alpha-MSH); conditions: read-out: hMC-4R binding assay IC50/μM

Emax (melanocortin-4 receptor [1]) [%] | IC50 (melanocortin-4 receptor [2]) [µM] | Compound
0 | 0.1 to 1 | CC(C)CCN(CCC(C)C)C(=O)c1ccc2nc(-c3ccc(-c4ccccn4)s3)c(CN3CCC(N)CC3)n2c1 [Example 124]
0 | > 1 | CC(C)CCN(CCC(C)C)C(=O)c1ccc2nc(-c3ccc(Cl)cc3)c(CN3CCCC(N)C3)n2c1 (stereo not shown) [Example 126]
0 | > 1 | COc1ccc(OC)c(-c2nc3ccc(C(=O)N(CCC(C)C)CCC(C)C)cn3c2CN2CCC(N(C)C)CC2)c1 [Example 130]
0 | < 0.1 | CC(C)CCN(CCC(C)C)C(=O)c1ccc2nc(-c3ccc(Cl)c(Cl)c3)c(CN3CCC(N(C)C)CC3)n2c1 [Example 131]
0 | 0.1 to 1 | CC(C)CCN(CCC(C)C)C(=O)c1ccc2nc(-c3ccccc3)c(CN3CCC(N)CC3)n2c1 [Example 133]
0 | 0.1 to 1 | CC(C)CCN(CCC(C)C)C(=O)c1ccc2nc(-c3ccc(C(F)(F)F)cc3)c(CN3CCC(N)CC3)n2c1 [Example 134]
0 | 0.1 to 1 | CC(C)CCN(CCC(C)C)C(=O)c1ccc2nc(-c3ccc4c(c3)CCC(=O)N4)c(CN3CCC(N)CC3)n2c1 [Example 136]
0 | 0.1 to 1 | CC(C)CCN(CCC(C)C)C(=O)c1ccc2nc(-c3ccc4c(c3)NC(=O)CO4)c(CN3CCC(N)CC3)n2c1 [Example 137]
0 | 0.1 to 1 | COc1ccc(-c2nc3ccc(C(=O)N(CCC(C)C)CCC(C)C)cn3c2CN2CCC(N)CC2)cc1 [Example 140]
0 | < 0.1 | CCCCN(CCCC)C(=O)c1ccc2nc(-c3ccc(C#N)cc3)c(CCCN3CCCC3)n2c1 [Example 142]
0 | < 0.1 | CC(C)CCN(CCC1CC1)C(=O)c1ccc2nc(-c3ccc(C#N)cc3)c(CCCN3CCCC3)n2c1 [Example 143]
0 | < 0.1 | N#Cc1ccc(-c2nc3ccc(C(=O)N(CCC4CC4)CCC4CC4)cn3c2CCCN2CCCC2)cc1 [Example 145]
-12 | 0.1 to 1 | O=C(c1ccc2nc(-c3ccc(=O)[nH]c3)c(CCCN3CCCC3)n2c1)N(CCC1CC1)CCC1CC1 [Example 148]
0 | 0.1 to 1 | CC(C)CCN(CCC(C)CO)C(=O)c1ccc2nc(-c3ccc(=O)[nH]c3)c(CCCN3CCCC3)n2c1 (stereo not shown) [Example 149]

Continued, compound first:

Compound | Emax (melanocortin-4 receptor [1]) [%] | IC50 (melanocortin-4 receptor [2]) [µM]
CC(C)CCN(CCC(C)C)C(=O)c1ccc2nc(-c3cccs3)c(CN3CCC(N)CC3)n2c1 [Example 125] | 0 | 0.1 to 1
CC(C)CCN(CCC(C)C)C(=O)c1ccc2nc(-c3ccc(Cl)cc3)c(CN3C[C@H]4CNC[C@H]4C3)n2c1 [Example 127] | 0 | 0.1 to 1
CC(C)CCN(CCC(C)C)C(=O)c1ccc2nc(-c3ccc(Cl)cc3)c(CN3CCN4CCCC4C3)n2c1 (stereo not shown) [Example 128] | 0 | > 1
COc1ccc(-c2nc3ccc(C(=O)N(CCC(C)C)CCC(C)C)cn3c2CN2CCC(N(C)C)CC2)c(OC)c1 [Example 129] | 0 | > 1
CC(C)CCN(CCC(C)C)C(=O)c1ccc2nc(-c3nccs3)c(CN3CCC(N)CC3)n2c1 [Example 135] | 0 | > 1
CC(C)CCN(CCC(C)C)C(=O)c1ccc2nc(-c3ccc(C#N)cc3)c(CN3CCC(N)CC3)n2c1 [Example 138] | 0 | 0.1 to 1
COc1ccc(-c2nc3ccc(C(=O)N(CCC(C)C)CCC(C)C)cn3c2CN2CCC(N)CC2)cc1OC [Example 139] | 0 | 0.1 to 1
CCCN(CC1CC1)C(=O)c1ccc2nc(-c3ccc(C#N)cc3)c(CCCN3CCCC3)n2c1 [Example 141] | 0 | 0.1 to 1
CC(C)CN(CC(C)C)C(=O)c1ccc2nc(-c3ccc(C#N)cc3)c(CCCN3CCCC3)n2c1 [Example 144] | 0 | 0.1 to 1
CC(C)CC1CCCN1C(=O)c1ccc2nc(-c3ccc(C#N)cc3)c(CCCN3CCCC3)n2c1 (stereo not shown) [Example 146] | 0 | 0.1 to 1
CCCC1CCCN1C(=O)c1ccc2nc(-c3ccc(C#N)cc3)c(CCCN3CCCC3)n2c1 (stereo not shown) [Example 147] | 0 | > 1
CC(C)CCN(CC(C)C)C(=O)c1ccc2nc(-c3ccc(C#N)cc3)c(CN3CCC(N)CC3)n2c1 [Example 150] | 0 | 0.1 to 1
